Test results taken from the kinase profiling compilation of Christmann-Franck et al. (2016).

Legend:
Assay in all cases: radiometric filter-binding kinase assay
RPS6KA1 KD1 KD2 (human) = RPS6KA1 KD1 KD2 (human) (UniProt Q15418)
INSRR (human) = INSRR (human) (UniProt P14616)
FGFR1 (human) = FGFR1 (human) (UniProt P11362)
PRKCZ (human) = PRKCZ (human) (UniProt Q05513)
PHKG1 (human) = PHKG1 (human) (UniProt Q16816)
CSNK2A1 (human) = CSNK2A1 (human) (UniProt P68400)
MYLK (human) = MYLK (human) (UniProt Q15746)
EEF2K (human) = EEF2K (human) (UniProt O00418)
IKBKB (human) = IKBKB (human) (UniProt O14920)
AURKB (human) = AURKB (human) (UniProt Q96GD4)
MAPK1 (human) = MAPK1 (human) (UniProt P28482)
EPHB3 (human) = EPHB3 (human) (UniProt P54753)
SRC (human) = SRC (human) (UniProt P12931)
PRKACA (human) = PRKACA (human) (UniProt P17612)
PRKAA1 or PRKAA2 (rat) = details: accession and sequence are those of the human protein
MAP2K2 (human) = MAP2K2 (human) (UniProt P36507)
CHEK2 (human) = CHEK2 (human) (UniProt O96017)
MARK4 (human) = MARK4 (human) (UniProt Q96L34)
ERBB4 (human) = ERBB4 (human) (UniProt Q15303)
TTK (human) = TTK (human) (UniProt P33981)
MKNK2 (human) = MKNK2 (human) (UniProt Q9HBH9)
MELK (human) = MELK (human) (UniProt Q14680)
LCK (mouse) = details: accession and sequence are those of the human protein
MAP3K9 (human) = MAP3K9 (human) (UniProt P80192)
NTRK1 (human) = NTRK1 (human) (UniProt P04629)
[1] = molecular target: STK11 CAB39 STRADA (human) (UniProt Q9Y376+Q7RTN6+Q15831)
MKNK1 (human) = MKNK1 (human) (UniProt Q9BUB5)
CDK2 CCNA2 (human) = CDK2 CCNA2 (human) (UniProt P20248+P24941)
MAPKAPK3 (human) = MAPKAPK3 (human) (UniProt Q16644)
MAPK13 (human) = MAPK13 (human) (UniProt O15264)
ROCK2 (rat) = details: accession and sequence are those of the human protein
GSK3B (human) = GSK3B (human) (UniProt P49841)
DAPK1 (human) = DAPK1 (human) (UniProt P53355)
MINK1 (human) = MINK1 (human) (UniProt Q8N4C8)
CSK (human) = CSK (human) (UniProt P41240)
Sequence of CSK (human) (P41240 whole entry, looked up): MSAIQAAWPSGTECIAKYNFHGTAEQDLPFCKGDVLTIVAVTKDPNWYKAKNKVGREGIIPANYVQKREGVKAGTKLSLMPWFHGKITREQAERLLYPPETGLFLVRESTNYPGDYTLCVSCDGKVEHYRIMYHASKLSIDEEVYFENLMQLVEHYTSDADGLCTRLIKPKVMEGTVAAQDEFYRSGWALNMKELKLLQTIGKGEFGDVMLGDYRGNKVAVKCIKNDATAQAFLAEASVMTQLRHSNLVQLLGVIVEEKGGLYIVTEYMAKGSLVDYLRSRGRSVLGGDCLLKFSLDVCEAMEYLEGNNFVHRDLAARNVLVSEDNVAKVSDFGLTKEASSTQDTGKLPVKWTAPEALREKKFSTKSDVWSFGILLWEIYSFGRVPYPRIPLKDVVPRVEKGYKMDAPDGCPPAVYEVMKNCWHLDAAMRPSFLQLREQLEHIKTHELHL

Sequence of MAPK1 (human) (P28482 whole entry, looked up): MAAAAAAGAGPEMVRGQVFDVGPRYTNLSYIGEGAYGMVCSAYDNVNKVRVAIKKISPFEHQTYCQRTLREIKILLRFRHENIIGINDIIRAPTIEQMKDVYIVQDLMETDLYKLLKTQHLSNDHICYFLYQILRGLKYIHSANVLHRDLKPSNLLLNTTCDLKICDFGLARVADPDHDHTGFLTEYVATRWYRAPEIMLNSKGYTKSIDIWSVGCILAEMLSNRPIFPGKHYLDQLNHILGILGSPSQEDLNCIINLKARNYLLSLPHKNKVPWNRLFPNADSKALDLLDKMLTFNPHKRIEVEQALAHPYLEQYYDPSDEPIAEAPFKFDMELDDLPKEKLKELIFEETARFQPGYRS
Sequence of MAPK13 (human) (O15264 whole entry, looked up): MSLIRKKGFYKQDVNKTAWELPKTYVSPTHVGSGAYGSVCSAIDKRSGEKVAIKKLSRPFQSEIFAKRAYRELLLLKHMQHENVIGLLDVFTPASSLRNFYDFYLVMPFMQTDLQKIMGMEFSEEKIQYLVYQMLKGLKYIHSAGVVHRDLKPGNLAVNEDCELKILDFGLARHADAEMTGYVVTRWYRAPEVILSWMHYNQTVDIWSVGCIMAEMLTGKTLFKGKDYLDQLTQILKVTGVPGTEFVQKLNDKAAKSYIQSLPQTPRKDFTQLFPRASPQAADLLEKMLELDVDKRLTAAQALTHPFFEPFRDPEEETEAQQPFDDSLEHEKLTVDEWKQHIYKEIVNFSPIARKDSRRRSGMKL
Sequence of INSRR (human) (P14616 whole entry, looked up): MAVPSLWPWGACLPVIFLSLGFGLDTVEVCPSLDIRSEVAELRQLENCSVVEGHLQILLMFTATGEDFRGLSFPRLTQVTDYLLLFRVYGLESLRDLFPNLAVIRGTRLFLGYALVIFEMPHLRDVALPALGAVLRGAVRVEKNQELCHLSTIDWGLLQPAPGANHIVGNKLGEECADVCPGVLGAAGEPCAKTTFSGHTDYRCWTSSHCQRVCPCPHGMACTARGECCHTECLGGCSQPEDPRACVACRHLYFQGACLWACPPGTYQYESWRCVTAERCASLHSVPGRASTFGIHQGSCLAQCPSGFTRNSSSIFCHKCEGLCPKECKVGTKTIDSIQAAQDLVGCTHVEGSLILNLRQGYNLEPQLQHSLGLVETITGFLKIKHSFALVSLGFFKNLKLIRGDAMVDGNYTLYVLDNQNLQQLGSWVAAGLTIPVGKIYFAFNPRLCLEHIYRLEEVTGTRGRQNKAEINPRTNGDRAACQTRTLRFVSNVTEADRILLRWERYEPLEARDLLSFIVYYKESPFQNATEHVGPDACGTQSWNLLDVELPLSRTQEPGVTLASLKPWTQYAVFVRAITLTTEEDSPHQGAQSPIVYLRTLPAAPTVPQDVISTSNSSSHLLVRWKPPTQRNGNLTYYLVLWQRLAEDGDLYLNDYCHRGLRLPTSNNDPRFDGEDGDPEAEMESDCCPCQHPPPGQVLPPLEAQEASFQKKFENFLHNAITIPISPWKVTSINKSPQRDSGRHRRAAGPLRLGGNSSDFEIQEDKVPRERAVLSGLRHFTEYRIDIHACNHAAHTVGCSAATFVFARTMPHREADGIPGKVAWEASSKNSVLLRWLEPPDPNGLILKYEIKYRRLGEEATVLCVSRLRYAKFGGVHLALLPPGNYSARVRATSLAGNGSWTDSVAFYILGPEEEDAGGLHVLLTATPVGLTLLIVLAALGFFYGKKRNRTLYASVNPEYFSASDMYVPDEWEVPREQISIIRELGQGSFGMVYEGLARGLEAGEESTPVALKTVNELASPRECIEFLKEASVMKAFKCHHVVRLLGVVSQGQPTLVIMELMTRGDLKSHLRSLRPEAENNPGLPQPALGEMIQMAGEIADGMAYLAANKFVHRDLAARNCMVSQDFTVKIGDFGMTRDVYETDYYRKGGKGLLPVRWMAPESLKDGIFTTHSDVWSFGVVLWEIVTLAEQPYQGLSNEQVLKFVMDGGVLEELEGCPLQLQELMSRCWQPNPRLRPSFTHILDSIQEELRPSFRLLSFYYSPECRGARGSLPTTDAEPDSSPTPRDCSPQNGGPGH
Sequence of MYLK (human) (Q15746 whole entry, looked up): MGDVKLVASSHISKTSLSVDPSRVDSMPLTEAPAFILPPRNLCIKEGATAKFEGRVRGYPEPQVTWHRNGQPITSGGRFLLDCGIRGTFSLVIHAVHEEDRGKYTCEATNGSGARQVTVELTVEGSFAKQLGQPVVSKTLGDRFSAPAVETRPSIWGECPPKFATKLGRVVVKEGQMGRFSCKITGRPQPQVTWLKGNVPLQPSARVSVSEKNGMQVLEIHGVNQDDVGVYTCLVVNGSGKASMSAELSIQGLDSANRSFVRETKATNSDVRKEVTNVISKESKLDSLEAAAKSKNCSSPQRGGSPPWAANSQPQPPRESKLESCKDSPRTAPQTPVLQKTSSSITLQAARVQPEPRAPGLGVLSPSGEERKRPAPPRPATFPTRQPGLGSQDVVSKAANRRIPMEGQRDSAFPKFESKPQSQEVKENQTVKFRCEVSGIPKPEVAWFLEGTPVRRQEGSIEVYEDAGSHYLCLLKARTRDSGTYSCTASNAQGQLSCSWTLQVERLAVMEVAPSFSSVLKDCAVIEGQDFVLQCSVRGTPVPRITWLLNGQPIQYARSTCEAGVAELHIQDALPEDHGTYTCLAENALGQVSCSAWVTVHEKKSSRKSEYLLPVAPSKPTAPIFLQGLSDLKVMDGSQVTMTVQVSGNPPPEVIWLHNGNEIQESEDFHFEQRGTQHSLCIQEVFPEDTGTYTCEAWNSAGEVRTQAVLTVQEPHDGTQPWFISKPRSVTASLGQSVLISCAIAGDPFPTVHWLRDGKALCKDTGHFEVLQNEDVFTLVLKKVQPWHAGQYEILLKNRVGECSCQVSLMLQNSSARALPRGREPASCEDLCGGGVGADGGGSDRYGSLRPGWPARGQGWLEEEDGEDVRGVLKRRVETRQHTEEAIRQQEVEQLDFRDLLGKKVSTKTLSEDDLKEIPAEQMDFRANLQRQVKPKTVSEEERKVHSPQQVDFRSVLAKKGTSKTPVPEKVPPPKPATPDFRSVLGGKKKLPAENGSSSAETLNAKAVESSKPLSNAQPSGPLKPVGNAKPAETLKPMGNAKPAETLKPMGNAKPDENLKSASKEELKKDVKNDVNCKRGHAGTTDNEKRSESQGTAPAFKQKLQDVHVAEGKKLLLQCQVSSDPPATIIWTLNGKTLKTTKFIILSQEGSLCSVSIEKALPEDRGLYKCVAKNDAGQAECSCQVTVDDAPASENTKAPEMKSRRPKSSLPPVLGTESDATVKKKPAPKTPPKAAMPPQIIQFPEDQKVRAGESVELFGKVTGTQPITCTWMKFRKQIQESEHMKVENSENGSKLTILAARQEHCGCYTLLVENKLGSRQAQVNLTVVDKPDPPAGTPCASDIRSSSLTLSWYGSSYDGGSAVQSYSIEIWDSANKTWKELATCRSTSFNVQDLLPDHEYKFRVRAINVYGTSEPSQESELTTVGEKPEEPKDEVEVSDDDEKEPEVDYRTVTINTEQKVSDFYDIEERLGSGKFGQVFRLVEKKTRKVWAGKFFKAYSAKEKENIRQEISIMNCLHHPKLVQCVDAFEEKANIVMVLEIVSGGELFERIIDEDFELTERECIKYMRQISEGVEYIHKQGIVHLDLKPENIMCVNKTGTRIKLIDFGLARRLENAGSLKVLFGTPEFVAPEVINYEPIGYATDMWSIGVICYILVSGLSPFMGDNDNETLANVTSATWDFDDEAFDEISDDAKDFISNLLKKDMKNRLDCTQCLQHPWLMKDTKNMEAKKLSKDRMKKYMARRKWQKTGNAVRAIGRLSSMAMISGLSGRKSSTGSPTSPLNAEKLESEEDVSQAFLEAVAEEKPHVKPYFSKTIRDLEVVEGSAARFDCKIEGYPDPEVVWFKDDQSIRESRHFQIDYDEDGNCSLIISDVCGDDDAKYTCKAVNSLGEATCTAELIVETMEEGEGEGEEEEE
Sequence of MAPKAPK3 (human) (Q16644 whole entry, looked up): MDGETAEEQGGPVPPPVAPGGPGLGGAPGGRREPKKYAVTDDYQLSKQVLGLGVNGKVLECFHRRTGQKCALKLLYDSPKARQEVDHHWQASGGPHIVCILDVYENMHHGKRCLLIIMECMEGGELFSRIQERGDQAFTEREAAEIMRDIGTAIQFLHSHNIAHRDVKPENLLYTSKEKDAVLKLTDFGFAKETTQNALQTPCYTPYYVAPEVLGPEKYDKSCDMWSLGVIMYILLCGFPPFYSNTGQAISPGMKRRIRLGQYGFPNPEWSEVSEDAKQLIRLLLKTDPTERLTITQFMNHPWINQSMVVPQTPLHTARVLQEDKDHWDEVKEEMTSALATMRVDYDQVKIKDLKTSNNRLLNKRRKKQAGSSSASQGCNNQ

Q: Which residual activity (RPS6KA1 KD1 KD2 (human); compound 10.0 µM) does the source give for `N#Cc1c(O)c2c(-c3ccc(-c4ccccc4O)cc3)csc2[nH]c1=O` here?
A: 80%

Q: What about the residual activity (RPS6KA1 KD1 KD2 (human); compound 50.0 µM) of the same compound?
A: 9%

Q: What about the residual activity (RPS6KA1 KD1 KD2 (human); compound 100.0 µM) of the same compound?
A: 12%

Q: What about the residual activity (INSRR (human); compound 10.0 µM) of the same compound?
A: 88%

Q: What about the residual activity (INSRR (human); compound 50.0 µM) of the same compound?
A: 90%

Q: What about the residual activity (INSRR (human); compound 100.0 µM) of the same compound?
A: 51%

Q: What about the residual activity (FGFR1 (human); compound 10.0 µM) of the same compound?
A: 109%

Q: And the residual activity (FGFR1 (human); compound 50.0 µM)?
A: 95%

Q: What about the residual activity (FGFR1 (human); compound 100.0 µM) of the same compound?
A: 50%

Q: What about the residual activity (PRKCZ (human); compound 10.0 µM) of the same compound?
A: 96%

Q: And the residual activity (PRKCZ (human); compound 50.0 µM)?
A: 67%

Q: What about the residual activity (PRKCZ (human); compound 100.0 µM) of the same compound?
A: 28%

Q: What about the residual activity (PHKG1 (human); compound 10.0 µM) of the same compound?
A: 96%

Q: And the residual activity (PHKG1 (human); compound 50.0 µM)?
A: 65%

Q: And the residual activity (PHKG1 (human); compound 100.0 µM)?
A: 73%

Q: What about the residual activity (CSNK2A1 (human); compound 10.0 µM) of the same compound?
A: 110%

Q: And the residual activity (CSNK2A1 (human); compound 50.0 µM)?
A: 95%

Q: And the residual activity (CSNK2A1 (human); compound 100.0 µM)?
A: 86%

Q: What about the residual activity (MYLK (human); compound 10.0 µM) of the same compound?
A: 76%

Q: What about the residual activity (MYLK (human); compound 50.0 µM) of the same compound?
A: 39%

Q: What about the residual activity (MYLK (human); compound 100.0 µM) of the same compound?
A: 20%

Q: What about the residual activity (EEF2K (human); compound 10.0 µM) of the same compound?
A: 89%

Q: What about the residual activity (EEF2K (human); compound 50.0 µM) of the same compound?
A: 73%

Q: What about the residual activity (EEF2K (human); compound 100.0 µM) of the same compound?
A: 64%

Q: What about the residual activity (IKBKB (human); compound 10.0 µM) of the same compound?
A: 86%

Q: And the residual activity (IKBKB (human); compound 50.0 µM)?
A: 60%

Q: What about the residual activity (IKBKB (human); compound 100.0 µM) of the same compound?
A: 39%

Q: What about the residual activity (AURKB (human); compound 10.0 µM) of the same compound?
A: 53%

Q: And the residual activity (AURKB (human); compound 50.0 µM)?
A: 25%

Q: What about the residual activity (AURKB (human); compound 100.0 µM) of the same compound?
A: 22%

Q: What about the residual activity (MAPK1 (human); compound 10.0 µM) of the same compound?
A: 103%

Q: What about the residual activity (MAPK1 (human); compound 50.0 µM) of the same compound?
A: 74%

Q: What about the residual activity (MAPK1 (human); compound 100.0 µM) of the same compound?
A: 49%

Q: What about the residual activity (EPHB3 (human); compound 10.0 µM) of the same compound?
A: 81%

Q: And the residual activity (EPHB3 (human); compound 100.0 µM)?
A: 55%

Q: What about the residual activity (SRC (human); compound 10.0 µM) of the same compound?
A: 44%

Q: What about the residual activity (SRC (human); compound 50.0 µM) of the same compound?
A: 65%

Q: And the residual activity (SRC (human); compound 100.0 µM)?
A: 10%

Q: And the residual activity (PRKACA (human); compound 10.0 µM)?
A: 89%

Q: What about the residual activity (PRKACA (human); compound 50.0 µM) of the same compound?
A: 41%

Q: What about the residual activity (PRKACA (human); compound 100.0 µM) of the same compound?
A: 95%

Q: And the residual activity (PRKAA1 or PRKAA2 (rat); compound 10.0 µM)?
A: 135%

Q: What about the residual activity (PRKAA1 or PRKAA2 (rat); compound 50.0 µM) of the same compound?
A: 67%

Q: And the residual activity (PRKAA1 or PRKAA2 (rat); compound 100.0 µM)?
A: 62%

Q: What about the residual activity (MAP2K2 (human); compound 10.0 µM) of the same compound?
A: 74%

Q: And the residual activity (MAP2K2 (human); compound 100.0 µM)?
A: 19%

Q: And the residual activity (CHEK2 (human); compound 10.0 µM)?
A: 79%

Q: And the residual activity (CHEK2 (human); compound 50.0 µM)?
A: 52%

Q: And the residual activity (CHEK2 (human); compound 100.0 µM)?
A: 33%

Q: What about the residual activity (MARK4 (human); compound 10.0 µM) of the same compound?
A: 92%

Q: What about the residual activity (MARK4 (human); compound 100.0 µM) of the same compound?
A: 45%

Q: And the residual activity (ERBB4 (human); compound 10.0 µM)?
A: 33%

Q: And the residual activity (ERBB4 (human); compound 100.0 µM)?
A: 8%

Q: And the residual activity (TTK (human); compound 10.0 µM)?
A: 76%

Q: And the residual activity (TTK (human); compound 100.0 µM)?
A: 48%

Q: And the residual activity (MKNK2 (human); compound 10.0 µM)?
A: 102%

Q: What about the residual activity (MKNK2 (human); compound 50.0 µM) of the same compound?
A: 80%

Q: And the residual activity (MKNK2 (human); compound 100.0 µM)?
A: 86%

Q: And the residual activity (MELK (human); compound 10.0 µM)?
A: 46%

Q: And the residual activity (MELK (human); compound 50.0 µM)?
A: 64%

Q: What about the residual activity (MELK (human); compound 100.0 µM) of the same compound?
A: 21%

Q: What about the residual activity (LCK (mouse); compound 10.0 µM) of the same compound?
A: 88%

Q: And the residual activity (LCK (mouse); compound 50.0 µM)?
A: 58%

Q: What about the residual activity (LCK (mouse); compound 100.0 µM) of the same compound?
A: 58%

Q: And the residual activity (MAP3K9 (human); compound 10.0 µM)?
A: 59%

Q: What about the residual activity (MAP3K9 (human); compound 100.0 µM) of the same compound?
A: 18%

Q: What about the residual activity (NTRK1 (human); compound 10.0 µM) of the same compound?
A: 69%

Q: What about the residual activity (NTRK1 (human); compound 100.0 µM) of the same compound?
A: 28%

Q: And the residual activity ([1]; compound 10.0 µM)?
A: 86%

Q: What about the residual activity ([1]; compound 100.0 µM) of the same compound?
A: 65%

Q: What about the residual activity (MKNK1 (human); compound 10.0 µM) of the same compound?
A: 104%

Q: What about the residual activity (MKNK1 (human); compound 50.0 µM) of the same compound?
A: 66%

Q: And the residual activity (MKNK1 (human); compound 100.0 µM)?
A: 93%

Q: And the residual activity (CDK2 CCNA2 (human); compound 10.0 µM)?
A: 100%

Q: And the residual activity (CDK2 CCNA2 (human); compound 50.0 µM)?
A: 84%

Q: And the residual activity (CDK2 CCNA2 (human); compound 100.0 µM)?
A: 121%

Q: And the residual activity (MAPKAPK3 (human); compound 10.0 µM)?
A: 57%

Q: And the residual activity (MAPKAPK3 (human); compound 50.0 µM)?
A: 48%

Q: What about the residual activity (MAPKAPK3 (human); compound 100.0 µM) of the same compound?
A: 8%

Q: What about the residual activity (MAPK13 (human); compound 10.0 µM) of the same compound?
A: 107%

Q: What about the residual activity (MAPK13 (human); compound 50.0 µM) of the same compound?
A: 116%

Q: What about the residual activity (MAPK13 (human); compound 100.0 µM) of the same compound?
A: 124%

Q: What about the residual activity (ROCK2 (rat); compound 10.0 µM) of the same compound?
A: 91%

Q: And the residual activity (ROCK2 (rat); compound 50.0 µM)?
A: 49%

Q: And the residual activity (ROCK2 (rat); compound 100.0 µM)?
A: 75%

Q: What about the residual activity (GSK3B (human); compound 10.0 µM) of the same compound?
A: 80%

Q: What about the residual activity (GSK3B (human); compound 50.0 µM) of the same compound?
A: 17%

Q: And the residual activity (GSK3B (human); compound 100.0 µM)?
A: 46%

Q: What about the residual activity (DAPK1 (human); compound 10.0 µM) of the same compound?
A: 107%

Q: What about the residual activity (DAPK1 (human); compound 100.0 µM) of the same compound?
A: 83%

Q: What about the residual activity (MINK1 (human); compound 10.0 µM) of the same compound?
A: 65%

Q: What about the residual activity (MINK1 (human); compound 100.0 µM) of the same compound?
A: 5%

Q: And the residual activity (CSK (human); compound 10.0 µM)?
A: 79%

Q: What about the residual activity (CSK (human); compound 50.0 µM) of the same compound?
A: 46%

Q: And the residual activity (CSK (human); compound 100.0 µM)?
A: 82%
